Measurements published in ChEMBL document CHEMBL6074639, “MALT1 Inhibitors for Treating Cancer and Immunological Diseases” (ACS Med Chem Lett, 2024).

What follows are compounds tested against T1, Mucosa-associated lymphoid tissue lymphoma translocation protein 1 (Homo sapiens, UniProt Q9UDY8) (assay: Inhibition of full length his-tagged MALT1 (1 to 824 residues) (unknown origin) expressed in Baculovirus infected in insect cells using tetrapeptide-[…]-AMC as fluorescent substrate preincubated for 50 mins followed by substrate addition and measured after 4 hrs by fluorescence based analysis).
T1 sequence (Q9UDY8 whole entry): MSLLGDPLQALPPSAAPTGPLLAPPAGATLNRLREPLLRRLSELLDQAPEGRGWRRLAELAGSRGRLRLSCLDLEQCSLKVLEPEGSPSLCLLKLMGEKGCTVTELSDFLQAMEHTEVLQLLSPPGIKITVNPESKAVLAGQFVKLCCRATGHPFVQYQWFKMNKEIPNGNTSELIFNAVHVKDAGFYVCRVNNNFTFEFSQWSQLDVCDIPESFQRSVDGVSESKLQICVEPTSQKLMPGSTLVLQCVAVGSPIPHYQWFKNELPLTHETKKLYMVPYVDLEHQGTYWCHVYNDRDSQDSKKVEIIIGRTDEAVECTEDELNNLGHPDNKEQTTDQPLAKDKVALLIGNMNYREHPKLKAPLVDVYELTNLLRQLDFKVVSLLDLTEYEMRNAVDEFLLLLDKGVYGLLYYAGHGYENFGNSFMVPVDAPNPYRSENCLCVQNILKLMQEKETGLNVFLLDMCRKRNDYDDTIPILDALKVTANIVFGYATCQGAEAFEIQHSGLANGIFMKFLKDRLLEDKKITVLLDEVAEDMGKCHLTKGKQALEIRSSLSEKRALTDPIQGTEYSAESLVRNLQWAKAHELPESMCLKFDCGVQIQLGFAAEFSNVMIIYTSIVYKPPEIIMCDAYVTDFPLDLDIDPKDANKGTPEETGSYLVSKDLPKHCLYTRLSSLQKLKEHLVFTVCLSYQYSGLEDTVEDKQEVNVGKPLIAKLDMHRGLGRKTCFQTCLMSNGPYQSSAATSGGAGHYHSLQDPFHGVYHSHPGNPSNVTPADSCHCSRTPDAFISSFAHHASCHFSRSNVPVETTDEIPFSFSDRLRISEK

| IC50 | Compound |
| --- | --- |
| 6 nM | C[C@@]1(C(F)(F)F)CN(c2ccc([C@H]3C(F)(F)[C@]3(C)C(=O)NCCS(N)(=O)=O)cc2)c2cnc3cc(Cl)nn3c21 |
| 5 nM | C[C@@]1(C(F)(F)F)CN(c2ccc([C@H]3C(F)(F)[C@]3(C)C(=O)NCC(N)=O)cc2)c2cnc3cc(Cl)nn3c21 |
| 6 nM | C[C@@]1(C(F)(F)F)CN(c2ccc([C@H]3C(F)(F)[C@]3(C)C(=O)N[C@H]3C[C@@H](C[S+](C)(=N)[O-])C3)cc2)c2cnc3cc(Cl)nn3c21 (stereo partly specified) |
| 6 nM | CC(C)(C)NC(=O)[C@]1(C)[C@@H](c2ccc(N3C[C@@](C)(C(F)(F)F)c4c3cnc3cc(Cl)nn43)cc2)C1(F)F |
| 5 nM | C[C@@]1(C(F)(F)F)CN(c2ccc([C@H]3C(F)(F)[C@]3(CO)C(N)=O)cc2)c2cnc3cc(Cl)nn3c21 |
| 6 nM | C[C@@]1(C(F)(F)F)CN(c2ccc([C@H]3C(F)(F)[C@]3(C)C(=O)NCC3CNC(=O)C3)cc2)c2cnc3cc(Cl)nn3c21 (stereo partly specified) |
